Values quoted from earlier work, collected in publication PMC10299363 (International Journal of Molecular Sciences, 2023).

Legend:
chemically induced PDACs = conditions: subcutaneous injection, rats
Text: The galaninergic system is also involved in tumorigenesis, the invasion/migration of tumor cells and angiogenesis, and has been correlated with the tumor stage, proliferation, metastasis, and recurrence rate. […] The inactivation of GAL2R by promoter hypermethylation decreased disease-free survival. GAL2R strongly exerted anti-tumor activity via two important mechanisms: (1) tumor cell cycle arrest mediated via the extracellular-regulated protein kinase-1/2 (ERK1/2)-dependent effects on the cyc ...

head and neck cancer = conditions: via activation of PBMCs

binding to GAL2R (GAL2R) | binding to GAL3R (GAL3R) | Substance | number of chemically induced PDACs (chemically induced PDACs) | effect on insulin secretion (insulin secretion) | effect in head and neck cancer (head and neck cancer) | breakdown in vivo
binds | binds | galanin: 30 amino acid peptide that stimulates three subtype receptors (GAL1–3R) | reduced the number of chemically induced PDACs | strong inhibitory effects toward insulin secretion | pro-tumor effects | 
 |  | linear angiotensin: linear angiotensin (ref 33: radioiodinated angiotensin II) (DRVYIHPF; Angiotensin-2; UniProt P01019 25-32, looked up) |  |  |  | broken down within a minute
